Reference: the supplement of paper PMC4862054

Experiments:
Experiment in all cases: normalised viability (% of control), CellTiter-Blue; higher = more viable cells (about 100 = DMSO control)
Conditions in all cases: incubation time: 72 h
BT-474 = tested on: BT-474
In short: (§1)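 The reported figure is normalised viability at a single listed concentration of the series. Breast cancer cell lines (20 µl suspension) went onto 384-well plates holding compound in 5 µl medium for 72 h. CellTiter-Blue (2.5 µl, 2 h, 37 °C) was read by fluorescence at 560/590 nm, and each plate was scaled to vehicle at 100 and a positive kill control at 0.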

CAL-120 = tested on: CAL-120
In short: as §1

CAL-148 = tested on: CAL-148
In short: as §1

CAL-51 = tested on: CAL-51
In short: as §1

CAL-85-1 = tested on: CAL-85-1
In short: as §1

DU-4475 = tested on: DU-4475
In short: as §1

HCC1143 = tested on: HCC1143
In short: as §1

HCC1599 = tested on: HCC1599
In short: as §1

HCC1937 = tested on: HCC1937
In short: as §1

HDQ-P1 = tested on: HDQ-P1
In short: as §1

Hs578T = tested on: Hs578T
In short: as §1

MDA-MB-436 = tested on: MDA-MB-436
In short: as §1

MDA-MB-453 = tested on: MDA-MB-453
In short: as §1

MFM-223 = tested on: MFM-223
In short: as §1

SK-BR-3 = tested on: SK-BR-3
In short: as §1

O=P(O)(NCCCl)NCCCl [Ifosfamide mustard]
normalised viability [%]
Conditions | 3 nM | 10 nM | 30 nM | 100 nM | 1000 nM | 10000 nM
BT-474 | – | 128 | – | – | 117 | 119
CAL-51 | 106 | – | 98.3 | 105 | – | –
CAL-85-1 | 96 | – | 90.9 | 99.1 | – | –
CAL-120 | – | 80.5 | – | – | 85.6 | 89.5
CAL-148 | 96.8 | – | 103 | 102 | – | –
DU-4475 | 92.4 | – | 99.6 | 95.7 | – | –
HCC1143 | – | 99.6 | – | – | 99.8 | 97.5
HCC1599 | – | 96.2 | – | – | 106 | 95.6
HCC1937 | – | 72.7 | – | – | 80.2 | 91.5
HDQ-P1 | 107 | – | 117 | 107 | – | –
Hs578T | – | 106 | – | – | 102 | 112
MDA-MB-436 | – | 110 | – | – | 73.3 | 104
MDA-MB-453 | 115 | – | 95.5 | 107 | – | –
MFM-223 | – | 92.4 | – | – | 83.3 | 97
SK-BR-3 | – | 101 | – | – | 107 | 111

CS(=O)(=O)OCCCCOS(C)(=O)=O [Busulfan]
normalised viability [%]
Conditions | 30 nM | 100 nM | 300 nM | 1000 nM | 10000 nM | 100000 nM
BT-474 | – | 107 | – | – | 114 | 108
CAL-51 | 103 | – | 95.4 | 94.6 | – | –
CAL-85-1 | 106 | – | 101 | 108 | – | –
CAL-120 | – | 110 | – | – | 105 | 88.1
CAL-148 | 124 | – | 111 | 115 | – | –
DU-4475 | 96.1 | – | 89.2 | 94.7 | – | –
HCC1143 | – | 104 | – | – | 108 | 108
HCC1599 | – | 90.2 | – | – | 75.4 | 109
HCC1937 | – | 86.4 | – | – | 83.1 | 43.7
HDQ-P1 | 109 | – | 113 | 94.4 | – | –
Hs578T | – | 103 | – | – | 101 | 85.7
MDA-MB-436 | – | 106 | – | – | 95.2 | 82.9
MDA-MB-453 | 95.9 | – | 101 | 104 | – | –
MFM-223 | – | 108 | – | – | 95.7 | 99.1
SK-BR-3 | – | 95.1 | – | – | 104 | 87.8

CCOc1cc2ncc(C#N)c(Nc3ccc(OCc4ccccn4)c(Cl)c3)c2cc1NC(=O)/C=C/CN(C)C [Neratinib]
normalised viability [%]
Conditions | 0.3 nM | 1 nM | 3 nM | 10 nM | 100 nM | 1000 nM
BT-474 | – | 105 | – | – | 120 | 91.2
CAL-51 | 92 | – | 90.5 | 93 | – | –
CAL-85-1 | 92.7 | – | 100 | 97.1 | – | –
CAL-120 | – | 95.7 | – | – | 76 | 82.7
CAL-148 | 86.6 | – | 78.6 | 93.9 | – | –
DU-4475 | 103 | – | 95.4 | 101 | – | –
HCC1143 | – | 97.1 | – | – | 91.9 | 84.5
HCC1599 | – | 108 | – | – | 106 | 90.1
HCC1937 | – | 80.3 | – | – | 99.5 | 96.3
HDQ-P1 | 123 | – | 115 | 106 | – | –
Hs578T | – | 98.6 | – | – | 88.5 | 93.9
MDA-MB-436 | – | 104 | – | – | 108 | 110
MDA-MB-453 | 106 | – | 99 | 88.3 | – | –
MFM-223 | – | 99.2 | – | – | 87.7 | 91.6
SK-BR-3 | – | 107 | – | – | 95.8 | 114

CC(C)(C)c1cc(NC(=O)Nc2ccc(-c3cn4c(n3)sc3cc(OCCN5CCOCC5)ccc34)cc2)no1 [Quizartinib]
normalised viability [%]
Conditions | 0.3 nM | 1 nM | 3 nM | 10 nM | 100 nM | 1000 nM
BT-474 | – | 95.2 | – | – | 104 | 96.6
CAL-51 | 115 | – | 106 | 110 | – | –
CAL-85-1 | 96.9 | – | 97.8 | 105 | – | –
CAL-120 | – | 93.8 | – | – | 96.6 | 96.6
CAL-148 | 98.1 | – | 102 | 96.2 | – | –
DU-4475 | 95.8 | – | 98.6 | 93.3 | – | –
HCC1143 | – | 94.3 | – | – | 95.8 | 94.9
HCC1599 | – | 119 | – | – | 105 | 63.6
HCC1937 | – | 59.2 | – | – | 81.8 | 99.8
HDQ-P1 | 94.2 | – | 103 | 98.8 | – | –
Hs578T | – | 67.6 | – | – | 119 | 93.2
MDA-MB-436 | – | 104 | – | – | 45.7 | 87.6
MDA-MB-453 | 118 | – | 110 | 105 | – | –
MFM-223 | – | 86 | – | – | 86.4 | 83.8
SK-BR-3 | – | 88.4 | – | – | 93.5 | 96.5

C[C@@H]1C=C2C(=O)O[C@@H]3CC[C@H](C1)[C@]23O [Galiellalactone]
normalised viability [%]
Conditions | 15 nM | 50 nM | 150 nM | 500 nM | 5000 nM | 50000 nM
BT-474 | – | 131 | – | – | 98.9 | 27.4
CAL-51 | 108 | – | 104 | 102 | – | –
CAL-85-1 | 95.8 | – | 90.5 | 108 | – | –
CAL-120 | – | 88.6 | – | – | 89.9 | 83.8
CAL-148 | 99.7 | – | 108 | 103 | – | –
DU-4475 | 103 | – | 92.2 | 95.5 | – | –
HCC1143 | – | 90.8 | – | – | 104 | 86.9
HCC1599 | – | 95.2 | – | – | 89.8 | 67.5
HCC1937 | – | 132 | – | – | 79.4 | 22.8
HDQ-P1 | 108 | – | 96 | 116 | – | –
Hs578T | – | 121 | – | – | 115 | 50.9
MDA-MB-436 | – | 98.2 | – | – | 76.6 | 21.9
MDA-MB-453 | 114 | – | 91.2 | 98.4 | – | –
MFM-223 | – | 90.6 | – | – | 95.5 | 40.4
SK-BR-3 | – | 105 | – | – | 85.2 | 6.84

COc1cc(Nc2ncc(F)c(Nc3ccc4c(n3)NC(=O)C(C)(C)O4)n2)cc(OC)c1OC [R406]
normalised viability [%]
Conditions | 3 nM | 10 nM | 30 nM | 100 nM | 1000 nM | 10000 nM
BT-474 | – | 133 | – | – | 111 | 130
CAL-51 | 107 | – | 107 | 107 | – | –
CAL-85-1 | 93.8 | – | 87.8 | 97.5 | – | –
CAL-120 | – | 90.6 | – | – | 91.3 | 80.5
CAL-148 | 95.3 | – | 100 | 97.7 | – | –
DU-4475 | 96.4 | – | 85.1 | 91.5 | – | –
HCC1143 | – | 81.2 | – | – | 83.5 | 84.4
HCC1599 | – | 105 | – | – | 112 | 104
HCC1937 | – | 105 | – | – | 98.2 | 86
HDQ-P1 | 111 | – | 93.7 | 99.5 | – | –
Hs578T | – | 115 | – | – | 105 | 88.4
MDA-MB-436 | – | 84.3 | – | – | 102 | 101
MDA-MB-453 | 119 | – | 102 | 108 | – | –
MFM-223 | – | 92.4 | – | – | 89.5 | 85.4
SK-BR-3 | – | 104 | – | – | 98.3 | 112
